Data published in patent US20100190843A1, “Tubulin Isotype Screening in Cancer Therapy Using Halichondrin B Analogs” (Eisai R&D Management Co., Ltd., priority 2004, published 2010).
pIC50: −log10 of the molar value.

What was measured:
HCC1419 = test: Cell growth inhibition assay (methylene blue-based); settings: Homo sapiens, continuous exposure 4 or 7 days, at least three experiments
[1] = tested on: panel of 19 human breast cancer cell lines; test: Cell growth inhibition assay, whole panel; type: cell-based
Source text: (§1) The following human breast cancer cell lines were obtained from the ATCC. Cells were maintained according to ATCC-recommended culture conditions. AU565 (ATCC Catalog No. ATCC Catalog No. CRL-2351), BT-20 (ATCC Catalog No. HTB-19), MCF7 (ATCC Catalog No. HTB22), MDA-MB-231 (ATCC Catalog No. HTB-26), MDA-MB-435 (ATCC Catalog No. HTB-129), MDA-MB-468 (ATCC Catalog No. HTB-132), HCC38 (ATCC Catalog No. CRL-2314), HCC70 (ATCC Catalog No. CRL-2315), HCC1143 (ATCC Catalog No. CRL-2321), HCC1428 (ATCC Catalog No. CRL-2327), HCC1500 (ATCC Catalog No. CRL-2329), HCC1806 (ATCC Catalog No. CRL-2335), HCC1954 (ATCC Catalog No. CRL-2338), HCC2218 (ATCC Catalog No. CRL-2343), UACC-812 (ATCC Catalog No. CRL-1897), UACC-893 (ATCC Catalog No. CRL-1902), ZR-75-1 (ATCC Catalog No. CRL-1500), ZR-75-30 (ATCC Catalog No. CRL-1504).
Cultured human breast cancer cells were placed in 96-well plates and grown in the continuous presence of test compounds for 4 or 7 days. […] Cell growth was assessed using modifications (Amin et al., Cancer Res., 47:6040-6045, 1987; incorporated herein by reference) of a methylene blue-based microculture assay (Finlay et al., Anal. Biochem., 139:272-277, 1984; incorporated herein by reference).
Antiproliferative effects of four tubulin-binding anticancer agents were evaluated by a methylene blue-based cell growth inhibin assay in a panel of 19 human breast cancer cell lines. […]

MDA-MB-435 = test: Cell growth inhibition assay (methylene blue-based); settings: Homo sapiens, continuous exposure 4 or 7 days, at least three experiments
Source text: as §1
(§2) Cultured human breast cancer cells were placed in 96-well plates and grown in the continuous presence of test compounds for 4 or 7 days. To expose the cells to test compounds for 7 days, medium was replaced with fresh medium containing compounds after 4 days of exposure and cells were incubated for 3 additional days. Cell growth was assessed using modifications (Amin et al., Cancer Res., 47:6040-6045, 1987; incorporated herein by reference) of a methylene blue-based microculture assay (Finlay et al., Anal. Biochem., 139:272-277, 1984; incorporated herein by reference).
(§3) To investigate the possible expression of PgP by the cell lines used in this study, the antiproliferative effects of paclitaxel were determined in the presence and absence of verapamil, a known inhibitor of PgP.

HCC1954 = test: as above; settings: Homo sapiens, continuous exposure 4 or 7 days, at least three experiments
Source text: as §1, §2, §3

ZR-75-1 = test: as above; settings: Homo sapiens, continuous exposure 4 or 7 days, at least three experiments
Source text: as §1, §2, §3

ZR-75-30 = test: as above; settings: Homo sapiens, continuous exposure 4 or 7 days, at least three experiments
Source text: as §1, §2, §3

UACC-812 = test: as above; settings: Homo sapiens, continuous exposure 4 or 7 days, at least three experiments
Source text: as §1, §2, §3

MCF-7 = test: as above; settings: Homo sapiens, MCF7, continuous exposure 4 or 7 days, at least three experiments
Source text: as §1, §2, §3

UACC-893 = test: as above; settings: Homo sapiens, continuous exposure 4 or 7 days, at least three experiments
Source text: as §1, §2, §3

HCC1500 = test: as above; settings: Homo sapiens, continuous exposure 4 or 7 days, at least three experiments
Source text: as §1, §2, §3

HCC1428 = test: as above; settings: Homo sapiens, continuous exposure 4 or 7 days, at least three experiments
Source text: as §1, §2, §3

HCC38 = test: as above; settings: Homo sapiens, continuous exposure 4 or 7 days, at least three experiments
Source text: as §1, §2, §3

MDA-MB-468 = test: as above; settings: Homo sapiens, continuous exposure 4 or 7 days, at least three experiments
Source text: as §1, §2, §3

AU565 = test: as above; settings: Homo sapiens, continuous exposure 4 or 7 days, at least three experiments
Source text: as §1, §2, §3

MDA-MB-231 = test: as above; settings: Homo sapiens, continuous exposure 4 or 7 days, at least three experiments
Source text: as §1, §2, §3

HCC1806 = test: as above; settings: Homo sapiens, continuous exposure 4 or 7 days, at least three experiments
Source text: as §1, §2, §3

HCC70 = test: as above; settings: Homo sapiens, continuous exposure 4 or 7 days, at least three experiments
Source text: as §1, §2, §3

HC-2218 = test: as above; settings: Homo sapiens, continuous exposure 4 or 7 days, at least three experiments
Source text: as §1, §2, §3

BT-20 = test: as above; settings: Homo sapiens, continuous exposure 4 or 7 days, at least three experiments
Source text: as §1, §2, §3

HCC1143 = test: as above; settings: Homo sapiens, continuous exposure 4 or 7 days, at least three experiments
Source text: as §1, §2, §3

C=C1C[C@@H]2CC[C@@]34C[C@H]5O[C@H]6[C@@H](O3)C3O[C@H](CCC3O[C@H]6C5O4)CC(=O)CC3[C@H](CC4O[C@@H](CCC1O2)C[C@@H](C)C4=C)O[C@H](C[C@H](O)CN)[C@@H]3OC (stereo partly drawn) [E7389]
pIC50 (HCC1419): 8.80
pIC50 ([1]; Homo sapiens, range over the panel of 19 cell lines): 8.74 to 9.54
fold-difference between IC50's in the most sensitive and the least sensitive cell line ([1]; panel of 19 breast cancer cell lines): 6.2 fold
pIC50 (MDA-MB-435): 9.54
pIC50 (HCC1954): 9.43
pIC50 (ZR-75-1): 8.92
pIC50 (ZR-75-30): 8.74
pIC50 (UACC-812): 8.93
pIC50 (MCF-7): 8.84
pIC50 (UACC-893): 9.51
pIC50 (HCC1500): 9.25
pIC50 (HCC1428): 9.28
pIC50 (HCC38): 9.40
pIC50 (MDA-MB-468): 9.35
pIC50 (AU565): 9.19
pIC50 (MDA-MB-231): 8.76
pIC50 (HCC1806): 9.13
pIC50 (HCC70): 9.20
pIC50 (HC-2218): 8.94
pIC50 (BT-20): 9.09
pIC50 (HCC1143): 9.37
